The target of this test is T1, Kv7.2 (Homo sapiens, UniProt O43526).
T1 construct: expressed in transfected cells
In words: Activation of Kv7.2 (in vitro assay, concentration response curve). The settings on record: for Emax: Kv7.2 activation max %; for EC50: activation of Kv7.2. The test is classed as cell-based. On the procedure:
The term “EC50” in this application is defined as: the agonistic effect of a compound can be determined by testing the compound in an in vitro assay as described herein, whereby the effect of the compound is measured across a range of compound concentrations. The resulting data is plotted as a concentration response curve, which typically follows a sigmoidal function, whereby the concentration of the compound is plotted on the x axis and the response (agonistic effect) is plotted on the y axis. The term “EC50” is the “half maximal effective concentration” and denotes the concentration of a particular compound required to obtain 50% of the maximum response (Emax) which is observed for that compound in the given in vitro assay.

In general, Emax refers to the greatest response seen or fitted, relative to the assay's reference. For orientation: EC50 means the concentration giving half of the maximal effect. Low readings indicate higher potency in that assay, high ones lower potency in that assay. With `O=C(NCc1ccnc(OC(F)F)c1)N[C@@H]1[C@H]2CCC(F)(F)[C@H]21` (racemic) [Example 172, 1-[[2-(difluoromethoxy)pyridin-4-yl]methyl]-3-[rac-(1R,5S,6R)-2,2-difluoro-6-bicyclo[3.1.0]hexanyl]urea], the maximum response (Emax) turned out to be 66% and a half-maximal response (EC50) required 460 nM.
The matching figures for `O=C(NCc1ccnc(OCF)c1)N[C@@H]1[C@H]2CCC(F)(F)[C@H]21` (racemic) [Example 176, 1-[[2-(fluoromethoxy)pyridin-4-yl]methyl]-3-[rac-(1R,5S,6R)-2,2-difluoro-6-bicyclo[3.1.0]hexanyl]urea]: 62% and 890 nM.
The matching figures for `O=C(NCc1ccnc(OC(F)F)c1)N[C@H]1CC[C@](O)(C(F)(F)F)C1` (racemic) [Example 187, 1-[[2-(difluoromethoxy)pyridin-4-yl]methyl]-3-[rac-(1R,3S)-3-hydroxy-3-(trifluoromethyl)cyclopentyl]urea]: 40% and 1140 nM.
In turn, `O=C(NCc1ccnc(OC(F)F)c1)N[C@@H]1CC[C@H](C(F)F)C1` (racemic) [Example 193, 1-[[2-(difluoromethoxy)pyridin-4-yl]methyl]-3-[rac-(1R,3S)-3-(difluoromethyl)cyclopentyl]urea] registered an Emax of 48% and an EC50 of 220 nM.
The compound `O=C(NCc1ccnc(OC(F)F)c1)NC1CC[C@@H]2CC[C@H]12` (mixture of isomers) [Example 196, 1-[[2-(difluoromethoxy)pyridin-4-yl]methyl]-3-[rac-(1R,5R)-2-bicyclo[3.2.0]heptanyl]urea] displayed an Emax of 75% and an EC50 of 70 nM.
The matching figures for `O=C(NCc1ccnc(OC(F)F)c1)NC1C2CCC1CC(F)(F)C2` (racemic) [Example 197, 1-[[2-(difluoromethoxy)pyridin-4-yl]methyl]-3-[rac-(1R,5S)-3,3-difluoro-8-bicyclo[3.2.1]octanyl]urea]: 54% and 500 nM.
The matching figures for `O=C(NCc1ccnc(OCC(F)CF)c1)N[C@H]1CC[C@@H](C(F)(F)F)C1` (mixture of isomers) [Example 225, 1-[[2-(2,3-difluoropropoxy)pyridin-4-yl]methyl]-3-[rac-(1R,3S)-3-(trifluoromethyl)cyclopentyl]urea]: 52% and 310 nM.
Consider `O=C(NCc1ccnc(OC(F)F)c1)NC1C[C@@H](F)[C@@H](F)C1` (mixture of isomers) [Example 234, 1-[[2-(difluoromethoxy)pyridin-4-yl]methyl]-3-[rac-(3R,4S)-3,4-difluorocyclopentyl]urea], for which the maximal effect (Emax) worked out at 56% and the EC50 is 4270 nM.
In turn, `O=C(NCc1ccnc(OC(F)F)c1)N[C@@H]1C[C@H]2C[C@@H]1C(F)(F)C2` (racemic) [Example 236, 1-[[2-(difluoromethoxy)pyridin-4-yl]methyl]-3-[rac-(1R,2S,4S)-6,6-difluoro-2-bicyclo[2.2.1]heptanyl]urea] registered an Emax of 87% and an EC50 of 460 nM.
For `O=C(NCc1ccnc(OC(F)F)c1)N[C@@H]1CC[C@@H]1C(F)(F)F` (racemic) [Example 255, 1-[[2-(difluoromethoxy)pyridin-4-yl]methyl]-3-[rac-(1R,2S)-2-(trifluoromethyl)cyclobutyl]urea] the same measures were 78% and 2570 nM.
For `O=C(NCc1ccnc(CC(F)(F)F)c1)N[C@H]1CCC[C@@H](C(F)(F)F)C1` (racemic) [Example 276, 1-[rac-(1R,3S)-3-(trifluoromethyl)cyclohexyl]-3-[[2-(2,2,2-trifluoroethyl)pyridin-4-yl]methyl]urea] the same measures were 62% and 540 nM.
Compound `O=C(NCc1ccnc(OC(F)F)c1)N[C@@H]1CC[C@@H](C(F)(F)F)C1` (single isomer, unassigned) [Example 206] had a maximum response (Emax) of 75% and an EC50 of 490 nM.
